These results are taken from patent publication US20240116862A1, “SULFUR-CONTAINING LIPIDS” (THE UNIVERSITY OF BRITISH COLUMBIA, priority 2021, published 2024).

Series [1] in a line: Physicochemical characteristics of LNPs comprising mRNA and sulfur lipid (dynamic light scattering, Ribogreen entrapment). The method, then: (§1) LNP-mRNA systems were prepared as previously described (Kulkarni, J. A. et al. ACS Nano 12, 4787-4795 (2018); and Kulkarni, J. A. et al. Nanoscale 11, 9023-9031 (2019), each of which is incorporated herein by reference). Briefly, lipid components (ionizable cationic lipid, cholesterol, DSPC, and PEG-lipid) at appropriate ratios were dissolved in ethanol to a concentration of 10 mM total lipid. Luciferase encoding mRNA was dissolved in 25 mM sodium acetate pH 4 buffer to achieve an amine-to-phosphate (N/P) ratio of 6. The two solutions were mixed through a T-junction mixer at a total flow rate of 20 mL/min, and a flow rate ratio of 3:1 v/v (corresponding to 15:5 mL/min aqueous:organic phase). The resulting suspension was subsequently dialyzed against PBS pH 7.4. siRNAs were dissolved in 25 mM sodium acetate pH 4 buffer to achieve an amine-to-phosphate (N/P) ratio of 3. The two solutions were mixed through a T-junction mixer at a total flow rate of 20 mL/min, and a flow rate ratio of 3:1 v/v (corresponding to 15:5 mL/min aqueous:organic phase). The resulting suspension was subsequently dialyzed against PBS pH 7.4.
(§2) The hydrodynamic diameter and size distribution of LNP-mRNA and LNP-siRNA systems were analyzed by dynamic light scattering using a Malvern Zetasizer Nano ZS. Data presented as number-weighted average size. Lipid concentrations were measured using the Cholesterol E Total-Cholesterol assay (Wako Diagnostics, Richmond, VA). RNA concentration and entrapment were measured using the Quant-iT Ribogreen RNA assay as described elsewhere (Kulkarni, J. A. et al. ACS Nano 12, 4787-4795 (2018); and Kulkarni, J. A. et al. Nanoscale 11, 9023-9031 (2019)).
LNPs were prepared comprising ionizable cationic sulfur-containing lipid/DSPC/cholesterol/PEG-lipid at molar ratios of 50/10/38.5/1.5 and mRNA (at N/P ratio of 6) as described in the Materials and Methods. The size, PDI and entrapment percentage were determined as set out in the Materials and Methods and the results are shown in Table 2 below. The data are based on n≥3 experiments and values reported are means±SD. […]

Series [2] is described as follows: Physicochemical characteristics of lipid nanoparticle (LNP) entrapping siRNA (dynamic light scattering, Ribogreen entrapment, apparent pKa). To be noted: for Size: number-weighted average, mean of n≥3; for Entrapment: siRNA entrapment, LNP sulfur lipid/DSPC/cholesterol/PEG-lipid 50/10/38.5/1.5, N/P 3. The method, then:
as §1, §2
LNPs were prepared composed of ionizable cationic sulfur-containing lipid/DSPC/cholesterol/PEG-lipid at molar ratios of 50/10/38.5/1.5 and siRNA (at N/P ratio of 3) as described in the above Methods and Materials. The data are based on n≥3 experiments and values reported are means±SD.
Compound 13 (MF019; see Example 1) produced siRNA formulations having desirable physicochemical characteristics as shown in Table 3 below. The polydispersity index (PDI) of the resulting nanoparticles was <0.1, with an average LNP size ˜45 nm.

For series [3], the system named is HepG2 cells. Description: In vitro analysis of luciferase expression using LNP-mRNA systems. It is filed as cell-based. To be noted: LNP-mRNA (firefly luciferase) at 0.125, 0.25, 0.5 and 1 μg/mL, 24 hours post treatment, versus KC2 LNP. As to the method: To assess LNP-mRNA efficacy in vitro, HepG2 cells were seeded at 8,000 cells/well in 96-well plates and cultured in DMEM supplemented with 10% FBS. LNP systems entrapping luciferase mRNA were added at various concentrations and luciferase expression was analyzed 24 hours post-treatment using the Steady-Glo Luciferase kit (Promega, Madison, WI).
The in vitro gene expression efficacy of LNP systems entrapping mRNA encoding for firefly luciferase was assessed. HepG2 cells were treated at different doses (0.125, 0.25, 0.5 and 1 μg/mL) using the above LNP-mRNA systems. Luciferase expression was analyzed 24 hours post treatment. Ionizable cationic lipid used was either KC2 (DLin-KC2-DMA) or compound 13 (MF019; see Example 1). In each case, the RLU was higher for compound 13 (MF019) than for KC2.

In series [4] the test system is Factor VII. The series is described as follows: In vivo analysis of Factor VII (FVII) silencing using LNP-siRNA systems. The following applies: 0.3 mg/kg LNP-siFVII intravenous, mice, 24 h, FIG. 6. The method, then: FVII knockdown study were performed as previously described.^3 In brief, LNP-siRNA were administered intravenously into WT mice (Charles River Laboratories, Wilmington, MA). Animals were euthanized after 24 h, blood was collected, serum was separated from whole blood using Microtainer Serum Separator tubes (Becton Dickinson, Franklin Lakes, NJ), and the residual serum FVII levels were determined. All procedures were approved by the Animal Care Committee at the University of British Columbia and were performed in accordance with guidelines established by the Canadian Council on Animal Care.
The graph depicts residual Factor VII following intravenous administration of various doses of the LNP-siFVII (see Materials and Methods above).

Setting [5] is: LNP sulfur lipid/DSPC/cholesterol/PEG-lipid 50/10/38.5/1.5, siRNA, N/P 3.

The term pKa denotes the pH at which an ionisable group is half protonated.

`CCCCCSCSCCCCCCCCC(CCCCCCCCSCSCCCCC)OC(=O)CCCN(C)C` [compound 13, 6,8,26,28-tetrathiatritriacontan-17-yl 4-(dimethylamino)butanoate]: the PDI in series [1] (LNP sulfur lipid/DSPC/cholesterol/PEG-lipid 50/10/38.5/1.5, mRNA, N/P 6) worked out at 0.054; in series [2] (setting [5]), 0.028. In addition, the Size in series [1] (LNP sulfur lipid/DSPC/cholesterol/PEG-lipid 50/10/38.5/1.5, mRNA, N/P 6, number-weighted average, mean of n≥3) is given as 79 nm; in series [2] (setting [5]) it was 43 nm; in series [2] (LNP sulfur lipid/DSPC/cholesterol/PEG-lipid 50/10/38.5/1.5, siRNA, N/P 3, listed as Compound 13), roughly 45 nm. Moreover, the Entrapment in series [1] (mRNA entrapment, LNP sulfur lipid/DSPC/cholesterol/PEG-lipid 50/10/38.5/1.5, N/P 6) is greater than 93%; in series [2], greater than 93%; in series [2] (listed as Compound 13), greater than 93%. Moreover, the pKa in series [2] (setting [5]) was 6.41. The “polydispersity index (PDI)” value in series [2] (LNP with siRNA, N/P 3) is recorded as less than 0.1. Further, in series [2] (formulated in a lipid nanoparticle, nucleic acid not specified), the nucleic acid entrapment entry is “above 93%”. The “Luciferase expression (RLU) compared with KC2” value in series [3] is “higher”. The “Factor VII knock down (residual serum FVII)” value in series [4] is given as “almost complete knock down”.
